# Test results as given in ChEMBL document CHEMBL2046285, “Synthesis of novel imbricatolic acid analogues via insertion of N-substituted piperazine at C-15/C-19 positions, displaying glucose uptake stimulation in L6 skeletal muscle cells” (2012).
# System: L6
# Assay: Antidiabetic activity in rat L6 cells assessed as stimulation of glucose uptake at 10 uM
# Assay type: functional
row,SMILES,Activity
1,C=C1CC[C@@H]2[C@](C)(CCC[C@]2(C)C(=O)N2CCN(c3ccc(F)cc3)CC2)[C@H]1CC[C@H](C)CCOC(C)=O,22.45%
2,C=C1CC[C@@H]2[C@](C)(CCC[C@]2(C)C(=O)N2CCN(c3cccc(OC)c3)CC2)[C@H]1CC[C@H](C)CCOC(C)=O,54.73%
3,C=C1CC[C@@H]2[C@](C)(CCC[C@]2(C)C(=O)N2CCN(C/C=C/c3ccccc3)CC2)[C@H]1CC[C@H](C)CCOC(C)=O,16.3%
4,C=C1CC[C@@H]2[C@](C)(CCC[C@]2(C)C(=O)N2CCN(c3ccc(C)cc3)CC2)[C@H]1CC[C@H](C)CCOC(C)=O,2.21%
5,C=C1CC[C@@H]2[C@](C)(CCC[C@]2(C)C(=O)N2CCN(c3ccc(Cl)cc3)CC2)[C@H]1CC[C@H](C)CCOC(C)=O,40.79%
6,C=C1CC[C@@H]2[C@](C)(CCC[C@]2(C)C(=O)N2CCN(c3ccccc3)CC2)[C@H]1CC[C@H](C)CCOC(C)=O,24.14%
7,C=C1CC[C@@H]2[C@](C)(CCC[C@]2(C)C(=O)N2CCN(C)CC2)[C@H]1CC[C@H](C)CCOC(C)=O,-10.16%
8,C=C1CC[C@@H]2[C@](C)(CCC[C@]2(C)C(=O)N2CCN(C(C)=O)CC2)[C@H]1CC[C@H](C)CCOC(C)=O,-1.96%
9,C=C1CC[C@@H]2[C@](C)(CCC[C@]2(C)C(=O)OC)[C@H]1CC[C@H](C)CCOC(=O)CN1CCN(c2ccc(F)cc2)CC1,28.86%
10,C=C1CC[C@@H]2[C@](C)(CCC[C@]2(C)C(=O)OC)[C@H]1CC[C@H](C)CCOC(=O)CN1CCN(c2cccc(OC)c2)CC1,40.9%
11,C=C1CC[C@@H]2[C@](C)(CCC[C@]2(C)C(=O)OC)[C@H]1CC[C@H](C)CCOC(=O)CN1CCN(C/C=C/c2ccccc2)CC1,18.58%
12,C=C1CC[C@@H]2[C@](C)(CCC[C@]2(C)C(=O)OC)[C@H]1CC[C@H](C)CCOC(=O)CN1CCN(c2ccc(C)cc2)CC1,15.27%
13,C=C1CC[C@@H]2[C@](C)(CCC[C@]2(C)C(=O)OC)[C@H]1CC[C@H](C)CCOC(=O)CN1CCN(c2ccc(Cl)cc2)CC1,39.55%
14,C=C1CC[C@@H]2[C@](C)(CCC[C@]2(C)C(=O)OC)[C@H]1CC[C@H](C)CCOC(=O)CN1CCN(c2ccccc2)CC1,29.51%
15,C=C1CC[C@@H]2[C@](C)(CCC[C@]2(C)C(=O)OC)[C@H]1CC[C@H](C)CCOC(=O)CN1CCN(C)CC1,-3.75%
16,C=C1CC[C@@H]2[C@](C)(CCC[C@]2(C)C(=O)OC)[C@H]1CC[C@H](C)CCOC(=O)CN1CCN(C(C)=O)CC1,-5.9%
17,C=C1CC[C@@H]2[C@](C)(CCC[C@]2(C)C(=O)O)[C@H]1CC[C@H](C)CCO [IMBRICATOLIC ACID],34.41%
18,CN(CCOc1ccc(CC2SC(=O)NC2=O)cc1)c1ccccn1 (stereo not drawn) [ROSIGLITAZONE],54.5%
